Measured values reported in US20200102295A1, “NITROCATECHOL DERIVATIVES AS COMT INHIBITORS” (BIAL - PORTELA & CA, S.A., priority 2005, published 2020).
“And” between values parts separate entries of the source, which are not always exact repeats. Identical values can stand only once.

Tests used:
[1] = target: T1, mouse liver COMT (Mus musculus, UniProt O88587); assay: Mouse liver COMT activity after oral administration of test compounds; format: in vivo; conditions: 3 mg/kg oral, 3 h after administration
T1 construct: Aliquots of 0.5 ml of liver homogenates were preincubated; from tissue; host or cells: mouse liver homogenate (NMRI mice, dosed orally; ex vivo activity)
T1 sequence (O88587 1-265): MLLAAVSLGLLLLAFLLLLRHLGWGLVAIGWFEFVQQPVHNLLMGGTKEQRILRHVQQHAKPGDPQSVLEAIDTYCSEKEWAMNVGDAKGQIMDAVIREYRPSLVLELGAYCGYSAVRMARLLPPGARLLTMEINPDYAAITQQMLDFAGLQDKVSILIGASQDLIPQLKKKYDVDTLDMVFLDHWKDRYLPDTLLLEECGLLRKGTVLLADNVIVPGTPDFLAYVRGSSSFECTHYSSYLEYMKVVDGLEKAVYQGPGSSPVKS

[2] = system: Neuro 2A mouse neuroblastoma cells; assay: Cell toxicity: Neuro 2A cell viability (calcein-AM); format: cell-based; conditions: Neuro 2A cells, 30 μM, 24 h exposure

Row | COMT activity (% of control) ([1]; 3 mg/kg) | Structure (SMILES) | COMT activity (% of control) [1] | % of viable cells [2]
1 |  | Cc1c(-c2noc(-c3cc(O)c(O)c([N+](=O)[O-])c3)n2)c[n+]([O-])c(C)c1C [Compound 46, 3-Nitro-5-[3-(4,5,6-trimethyl-1-oxy-pyridin-3-yl)-[1,2,4]oxadiazol-5-yl]-benzene-1,2-diol] | 43.1 % of control | 53.0%
2 |  | CS(=O)(=O)c1cc(-c2noc(-c3cc(O)c(O)c([N+](=O)[O-])c3)n2)cc[n+]1[O-] [Compound 16, 5-[3-(2-Methanesulfonyl-1-oxy-pyridine-4-yl)-[1,2,4]oxadiazol-5-yl]-3-nitro-benzene-1,2-diol] | 85.9 % of control | 64.6%
3 |  | O=[N+]([O-])c1cc(-c2nc(-c3cc4ccccc4[n+]([O-])c3)no2)cc(O)c1O [Compound 35, 3-Nitro-5-[3-(1-oxy-quinolin-3-yl)-[1,2,4]oxadiazol-5-yl]-benzene-1,2-diol] | 81.2 % of control | 
4 |  | O=[N+]([O-])c1cc(-c2nc(-c3c(Cl)c[n+]([O-])cc3Cl)no2)cc(O)c1O [Compound 7, 5-[3-(3,5-Dichloro-1-oxy-pyridin-4-yl)-[1,2,4]oxadiazol-5-yl]-3-nitro-benzene-1,2-diol] | 14.2 % of control | 56.9%
5 |  | Cc1ccc(-c2noc(-c3cc(O)c(O)c([N+](=O)[O-])c3)n2)c[n+]1[O-] [Compound 20, 5-[3-(6-Methyl-1-oxy-pyridin-3-yl)-[1,2,4]oxadiazol-5-yl]-3-nitro-benzene-1,2-diol] | 56.6 % of control | 
6 |  | Cc1cc(-c2noc(-c3cc(O)c(O)c([N+](=O)[O-])c3)n2)cc(C)[n+]1[O-] [Compound 15, 5-[3-(2,6-Dimethyl-1-oxy-pyridine-4-yl)-[1,2,4]oxadiazol-5-yl]-3-nitro-benzene-1,2-diol] | 79.2 % of control | 97.1%
7 |  | O=[N+]([O-])c1cc(-c2nc(Cc3ccc[n+]([O-])c3)no2)cc(O)c1O [Compound 39, 3-Nitro-5-[3-(1′-oxy-pyridin-3-ylmethyl)-[1,2,4]oxadiazol-5-yl]-benzenediol] | 53.8 % of control | 94.9%
8 |  | Cc1c(C)c(C)[n+]([O-])c(Br)c1-c1noc(-c2cc(O)c(O)c([N+](=O)[O-])c2)n1 [Compound 40, 5-[3-(2-Bromo-4,5,6-trimethyl-1-oxy-pyridin-3-yl)-[1,2,4]oxadiazol-5-yl]-3-nitrobenzene-1,2-diol] | 55.2 % of control | 69.1%
9 |  | O=[N+]([O-])c1cc(-c2nc(-c3ccc(C(F)(F)F)[n+]([O-])c3)no2)cc(O)c1O [Compound 28, 3-Nitro-5-[3-(1-oxy-6-trifluoromethyl-pyridin-3-yl)-[1,2,4]oxadiazol-5-yl]-benzene-1,2-diol] | 11.3 % of control | 87.0%
10 |  | O=[N+]([O-])c1cc(-c2nc(-c3cccc[n+]3[O-])no2)cc(O)c1O [Compound 6, 3-Nitro-5-[3-(1-oxy-pyridin-2-yl)-[1,2,4]oxadiazol-5-yl]-benzene-1,2-diol] | 101.0 % of control | 107.1%
11 |  | Cc1cc(C)[n+]([O-])c(Br)c1-c1noc(-c2cc(O)c(O)c([N+](=O)[O-])c2)n1 [Compound 38, 5-[3-(2-Bromo-4,6-dimethyl-1-oxy-pyridin-3-yl)-[1,2,4]oxadiazol-5-yl]-3-nitro-benzene-1,2-diol] | 16.3 % of control | 86.0%
12 |  | CSc1ccc(-c2noc(-c3cc(O)c(O)c([N+](=O)[O-])c3)n2)c[n+]1[O-] [Compound 27, 5-[3-(6-Methylsulfanyl-1-oxy-pyridin-3-yl)-[1,2,4]oxadiazol-5-yl]-3-nitro-benzene-1,2-diol] | 47.5 % of control | 95.7%
13 |  | O=[N+]([O-])c1cc(-c2nc(-c3cc[n+]([O-])c(Sc4ccccc4)c3)no2)cc(O)c1O [Compound 13, 3-Nitro-5-[3-(1-oxy-2-phenylsulfanyl-pyridin-4-yl)-[1,2,4]oxadiazol-5-yl]-benzene-1,2-diol] | 102.3 % of control | 
14 |  | Cc1cc(C(F)(F)F)c(-c2noc(-c3cc(O)c(O)c([N+](=O)[O-])c3)n2)c(-c2ccccc2)[n+]1[O-] [Compound 33, 5-[3-(6-Methyl-1-oxy-2-phenyl-4-trifluoromethyl-pyridin-3-yl)-[1,2,4]oxadiazol-5-yl]-3-nitro-benzene-1,2-diol] | 39.8 % of control | 45.0%
15 | 59 % of control and 59.9 % of control | Cc1noc(-c2cc(O)c(O)c([N+](=O)[O-])c2)n1 [Compound 1, 5-(3-methyl-1,2,4-oxadiazol-5-yl)-3-nitropyrocatechol, reference compound] |  | 55% and 55.1%
16 |  | CSc1cc(-c2noc(-c3cc(O)c(O)c([N+](=O)[O-])c3)n2)cc[n+]1[O-] [Compound 17, 5-[3-(2-Methylsulfanyl-1-oxy-pyridine-4-yl)-[1,2,4]oxadiazol-5-yl]-3-nitro-benzene-1,2-diol] | 89.9 % of control | 96.0%
17 |  | O=[N+]([O-])c1cc(-c2nc(-c3ccc[n+]([O-])c3N3CCOCC3)no2)cc(O)c1O [Compound 26, 5-[3-(2-Morpholin-4-yl-1-oxy-pyridin-3-yl)-[1,2,4]oxadiazol-5-yl]-3-nitro-benzene-1,2-diol] | 35.5 % of control | 110.9%
18 |  | O=[N+]([O-])c1cc(-c2nc(-c3ccc[n+]([O-])c3Cl)no2)cc(O)c1O [Compound 24, 5-[3-(2-Chloro-1-oxy-pyridin-3-yl)-[1,2,4]oxadiazol-5-yl]-3-nitro-benzene-1,2-diol] | 71.8 % of control | 93.7%
19 | 79 % of control and 78.8 % of control | Cc1nc(-c2cc(O)c(O)c([N+](=O)[O-])c2)no1 [Compound 2, 5-(5-Methyl-[1,2,4]oxadiazol-3-yl)-3-nitro-benzene-1,2-diol] |  | 92.5%
20 |  | Cc1cc(C(F)(F)F)c(-c2noc(-c3cc(O)c(O)c([N+](=O)[O-])c3)n2)c(C)[n+]1[O-] [Compound 31, 5-[3-(2,6-Dimethyl-1-oxy-4-trifluoromethyl-pyridin-3-yl)-[1,2,4]oxadiazol-5-yl]-3-nitro-benzene-1,2-diol] | 0.8 % of control | 37.2%
21 |  | O=[N+]([O-])c1cc(-c2nc(-c3cc[n+]([O-])c(-c4ccoc4)c3)no2)cc(O)c1O [Compound 10, 5-[3-(2-Furan-3-yl-1-oxy-pyridine-4-yl)-[1,2,4]oxadiazol-5-yl]-3-nitro-benzene-1,2-diol] | 95.2 % of control | 69.3%
22 |  | Cc1cc[n+]([O-])cc1-c1noc(-c2cc(O)c(O)c([N+](=O)[O-])c2)n1 [Compound 21, 5-[3-(4-Methyl-1-oxy-pyridin-3-yl)-[1,2,4]oxadiazol-5-yl]-3-nitro-benzene-1,2-diol] | 95.6 % of control | 
23 |  | O=[N+]([O-])c1cc(-c2nc(-c3ccc(Cl)[n+]([O-])c3)no2)cc(O)c1O [Compound 23, 5-[3-(6-Chloro-1-oxy-pyridin-3-yl)-[1,2,4]oxadiazol-5-yl]-3-nitro-benzene-1,2-diol] | 43 % of control | 41.1%
24 |  | O=[N+]([O-])c1cc(-c2nc(-c3cc(-c4ccccc4)c[n+]([O-])c3)no2)cc(O)c1O [Compound 22, 3-Nitro-5-[3-(1-oxy-5-phenyl-pyridin-3-yl)-[1,2,4]oxadiazol-5-yl]-benzene-1,2-diol] | 111.6 % of control | 
25 |  | Cc1ccc(-c2noc(-c3cc(O)c(O)c([N+](=O)[O-])c3)n2)c(Cl)[n+]1[O-] [Compound 25, 5-[3-(2-Chloro-6-methyl-1-oxy-pyridin-3-yl)-[1,2,4]oxadiazol-5-yl]-3-nitro-benzene-1,2-diol] | 23.1 % of control | 100.2%
26 |  | O=[N+]([O-])c1cc(-c2nc(-c3cc[n+]([O-])c(Cl)c3)no2)cc(O)c1O [Compound 8, 5-[3-(2-Chloro-1-oxy-pyridin-4-yl)-[1,2,4]oxadiazol-5-yl]-3-nitro-benzene-1,2-diol] | 55.4 % of control | 106.7%
27 |  | O=[N+]([O-])c1cc(-c2nc(COc3ccc(C(F)(F)F)c[n+]3[O-])no2)cc(O)c1O [Compound 44, 3-Nitro-5-[3-(1′-oxy-5-trifluoromethyl-pyridin-2-yloxymethyl)-[1,2,4]oxadiazol-5-yl]-benzene-1,2-diol] | 24.5 % of control | 
28 |  | O=[N+]([O-])c1cc(-c2nc(-c3cc[n+]([O-])c4ccccc34)no2)cc(O)c1O [Compound 34, 3-Nitro-5-[3-(1-oxy-quinolin-4-yl)-[1,2,4]oxadiazol-5-yl]-benzene-1,2-diol] | 88.6 % of control | 
29 |  | O=[N+]([O-])c1cc(-c2nc(-c3cc[n+]([O-])c(-c4ccccc4)c3)no2)cc(O)c1O [Compound 9, 3-Nitro-5-[3-(1-oxy-2-phenyl-pyridin-4-yl)-[1,2,4]oxadiazol-5-yl]-benzene-1,2-diol] | 80.6 % of control | 79.7%
30 |  | O=[N+]([O-])c1cc(-c2nc(-c3ccc[n+]([O-])c3)no2)cc(O)c1O [Compound 5, 3-Nitro-5-[3-(1-oxy-pyridin-3-yl)-[1,2,4]oxadiazol-5-yl]-benzene-1,2-diol] | 58.4 % of control | 93.8%
